Reference: the NIST ThermoML archive (doi:10.1016/j.fluid.2016.02.009)
± gives the expanded uncertainty stated by the source.

Settings: Liquid, Vibrating tube method

COC(C)(C)C [2-methoxy-2-methylpropane]
mass density [kg/m3]
Settings	283.15 K	288.15 K	293.15 K	298.15 K	303.15 K	308.15 K	313.15 K	318.15 K	323.15 K
100 kPa	750.94 ± 0.3	745.79 ± 0.3	740.59 ± 0.3	735.34 ± 0.3	730.04 ± 0.3	724.69 ± 0.3	719.29 ± 0.3	713.84 ± 0.3	708.45 ± 0.3
5000 kPa	756.29 ± 0.33	751.33 ± 0.33	746.34 ± 0.33	741.32 ± 0.33	736.27 ± 0.33	731.19 ± 0.33	726.07 ± 0.34	720.92 ± 0.34	715.73 ± 0.34
10000 kPa	761.29 ± 0.36	756.52 ± 0.36	751.7 ± 0.37	746.89 ± 0.37	742.05 ± 0.37	737.18 ± 0.37	732.27 ± 0.37	727.36 ± 0.38	722.39 ± 0.38
15000 kPa	765.93 ± 0.4	761.32 ± 0.4	756.68 ± 0.4	752.04 ± 0.4	747.37 ± 0.41	742.69 ± 0.41	737.97 ± 0.41	733.26 ± 0.41	728.51 ± 0.42
20000 kPa	770.32 ± 0.43	765.86 ± 0.43	761.35 ± 0.44	756.85 ± 0.44	752.37 ± 0.44	747.84 ± 0.44	743.29 ± 0.45	738.74 ± 0.45	734.2 ± 0.45
25000 kPa	774.48 ± 0.46	770.15 ± 0.47	765.77 ± 0.47	761.42 ± 0.47	757.05 ± 0.48	752.67 ± 0.48	748.27 ± 0.48	743.91 ± 0.49	739.51 ± 0.49
30000 kPa	778.47 ± 0.49	774.24 ± 0.5	770.01 ± 0.5	765.75 ± 0.51	761.51 ± 0.52	757.26 ± 0.52	752.99 ± 0.53	748.75 ± 0.53	744.49 ± 0.54
35000 kPa	782.29 ± 0.53	778.15 ± 0.54	774 ± 0.54	769.88 ± 0.55	765.74 ± 0.56	761.6 ± 0.56	757.46 ± 0.57	753.35 ± 0.57	749.2 ± 0.58
40000 kPa	785.94 ± 0.57	781.89 ± 0.57	777.85 ± 0.58	773.81 ± 0.59	769.79 ± 0.59	765.75 ± 0.6	761.71 ± 0.61	757.7 ± 0.61	753.67 ± 0.62
45000 kPa	789.45 ± 0.6	785.49 ± 0.61	781.54 ± 0.62	777.6 ± 0.62	773.65 ± 0.63	769.71 ± 0.64	765.77 ± 0.65	761.86 ± 0.65	757.92 ± 0.66
50000 kPa	792.86 ± 0.64	788.97 ± 0.64	785.09 ± 0.65	781.23 ± 0.66	777.36 ± 0.67	773.49 ± 0.68	769.65 ± 0.68	765.83 ± 0.69	761.98 ± 0.7
55000 kPa	796.13 ± 0.67	792.3 ± 0.68	788.51 ± 0.69	784.71 ± 0.69	780.95 ± 0.7	777.14 ± 0.71	773.39 ± 0.72	769.63 ± 0.73	765.85 ± 0.74
60000 kPa	799.29 ± 0.7	795.55 ± 0.71	791.81 ± 0.72	788.1 ± 0.73	784.37 ± 0.74	780.65 ± 0.75	776.97 ± 0.76	773.29 ± 0.76	769.61 ± 0.77
65000 kPa	802.37 ± 0.73	798.67 ± 0.74	795 ± 0.75	791.36 ± 0.76	787.7 ± 0.77	784.04 ± 0.78	780.41 ± 0.79	776.82 ± 0.8	773.22 ± 0.81
